# Laboratory results as given in patent US8097615B2, “Neurofibrillary labels” (Wista Laboratories Ltd., priority 2001, dated 2012).
# “Also recorded” adds a separate entry of the source. Like-named read-outs stand apart in the source and are kept apart here.
# Assays:
# tangle fragments = assay: Competitive binding assay: displacement of primulin fluorescence from tangle fragments (ifI); parameters: species or system human; conditions: for competition with / displacement of other ligands at tangles: fluorescence end point
# Procedure: IfI material was homogenised in a 0.2 ml glass homogeniser in PBS. To the suspension, test compounds were added to final concentrations ranging from 0.1% to 0.00001%. […] The suspensions were transferred to a glass slide, and examined by fluorescence microscopy across a range of fluorescence filter blocks, covering excitation and emission wavelengths between 380 nm and 570 nm. The end point sought in these observations was displacement of typical primulin fluorescence from tangle fragments.
# amyloid = assay: Labelling / staining of amyloid deposits; type: binding
# tau-tau binding = target: T1, tau-tau binding (Homo sapiens, UniProt P10636); assay: Solid-phase tau-tau binding assay (dGA solid phase, dGAE liquid phase), tau Preparation 2; type: biochemical; conditions: for tau-tau binding relative to that seen in the absence of DMMB: tau typically 1 μM
# T1 construct: a truncated tau protein corresponding to the core fragment and terminating at Ala390-dGA; dGAE which terminates at Glu-391; made in house; host or cells: E. coli BL21 (DE3), pRK172; DE52 flow-through, P11 phosphocellulose, PEG concentration, no heat step (Preparation 2)
# T1 sequence (P10636 614-708 limits assumed): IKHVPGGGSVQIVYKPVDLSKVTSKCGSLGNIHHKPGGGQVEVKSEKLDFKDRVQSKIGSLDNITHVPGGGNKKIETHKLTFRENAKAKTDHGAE
# Procedure: Preparation 2 differs from Preparation 1 above in the following respects: (1) The concentration of cells at the sonication stage is increased by 5-fold. (2) A batchwise adsorption of non-tau proteins to DE52 is included. (3) The proteins are not subjected to heat treatment. (4) The final step involves concentration using polyethylene glycol.
# Escherichia coli is grown in 2×TY medium (Oxoid) supplemented with ampicillin (50 micrograms per ml) to late-logarithmic phase. Cells from 5 liters of culture are harvested by centrifugation and the cell pellets frozen rapidly over liquid nitrogen. The pellets are taken up with 50 mM PIPES (pH 6.8) containing 1 mM EDTA, 1 mM dithiothreitol and 1 mM phenylmethylsulphonylfluoride (PMSF) and bacteria lysed by sonication (2×3 min) at 4 C. The mixture is centrifuged at 10,000 rpm for 20 min. The supernatant is rotated with 1 gram of Whatman DE52 for 3 hr at 4 C. The mixture is separated on a column and the flow-through material that fails to bind to DE52 is incubated for 3 hr at 4 C, with rotation, with 0.4 g of Whatman P11 (freshly regenerated according to manufacturer's recommendations). The column is washed with column buffer (50 mM PIPES, pH 6.8 containing 1 mM EGTA, 5 mM EDTA, 0.2 mM MgCl2, 5 mM β-mercaptoethanol and 1 mM PMSF). Tau protein is eluted stepwise with a 0.1 to 1 M gradient of KCl in column buffer. Fractions containing tau (determined by immunoassay) are pooled and dialysed against 80 mM PIPES (pH6.8) containing 1 mM EGTA, 1 mM MgCl2 and 5 mM β-mercatoethanol, using dialysis tubing with a molecular weight cut-off of 1,000. The dialysate is concentrated by applying polyethylene glycol 8000 to the outside of the sac for 2-3 hr. The final concentration of tau ranged from 3 to 10 mg per ml.
# When the proteins dGA and dGAE were prepared as indicated above (“Preparation 2”), the properties of the tau-tau binding assay were altered relative to the properties obtained using the preparative method described in WO96/30766 (“Preparation 1”).
# The assay is performed using 96 well PVC plates (Falcon Cat. No. 353912 are used), and the following steps:
# 1. 50 μl dGA (˜10 μg/ml) in carbonate buffer, incubate 1 h at 37° C.
# (Carbonate buffer: 50 mM carbonate bicarbonate, pH 9.6 (Na2CO3 1.59 g/l, NaHCO3 2.93 g/l))
# 2. Wash plate in 0.05% Tween-20.
# 3. 200 μl PBS+2% Marvel, incubate 1 h at 37° C.
# 4. Rinse plate 2× in deionised water, then wash in 0.05% Tween-20.
# 5. 50 μl dGAE (˜10 μg/ml) plus drug in PBS+1% fish skin gelatin+0.05% Tween-20, incubate 1 h at 37° C.
# 6. Wash plate in 0.05% Tween-20.
# 7. 50 μl antibody 423 (1:10 dilution in PBS+2% Marvel), incubate 1 h at 37° C.
# 8. Rinse plate 2× in deionised water, then wash in 0.05% Tween-20.
# 9. 50 μl HRP-anti-mouse (1:1000 dilution in PBS+0.05% Tween-20), incubate 1 h at 37° C.
# 10. Wash plate in 0.05% Tween-20, then rinse 1× with deionised water.
# 11. 50 μl substrate solution, read immediately initial rate over 2 min in plate reader at OD650.
# (Substrate solution: 50 mM sodium acetate, pH 5.0+TMB (1 ml/100 ml of a 10 mg/ml solution in DMSO)+H2O2 (10 μl/100 ml)).
# isolated PHFs = assay: Ligand electronmicroscopy of Pronase-digested PHFs (gold-conjugated anti-biotin antibody); type: binding
# Procedure: (§1) In ifI suspensions such as this, tangles can be seen by blue fluorescence which is […] from that associated with binding of contaminants in the preparation. […] (a) Chemical labelling with the biotinylated benzothiazole analogue shown as 4b in FIG. 4. PHFs were deposited on a carbon-coated grid after Pronase digestion, and incubated briefly with compound 4b, and then incubated with an anti-biotin antibody preparation that had been conjugated with colloidal gold. […] (b) mAb 423 immunolabelling of isolated PHFs after Pronase digestion., followed by incubation with a gold-conjugated goat anti-mouse second antibody as described in Novak et al. 1993 (Novak M, Kabat J, Wischik C M (1993) “Molecular characterisation of the minimal protease-resistant tau unit of the Alzheimers' disease paired helical filament”, EMBO J. 12: 365-370). As shown in this paper, mAb 423 labels PHFs derived from intracellular tangles (which preserve N-terminal tau immunoreactivity in the fuzzy outer coat) poorly, but Pronase digested PHFs strongly.
# PHFs derived from an ifI fraction were deposited on a carbon coated grid after pronase digestion, and incubated briefly with a preparation of biotinylated Primulin, and then incubated with an anti-biotin antibody that has been conjugated with colloidal gold by the method of Slot and Gueze (1981).
# PHFs = assay: Spectrofluorometry of primulin in solution and bound to PHFs (ifII); type: binding; conditions: PHFs with bound primulin treated with the substance
# Procedure: These measurements were carried out in a Perkin-Elmer spectrofluorimeter (model MPF-3). A concentration of ligand of 0.00001% was routinely used for all measurements. […] All measurements were therefore carried out at a standard excitation wavelength of 370 nm, and a constant slit width of 3 mm.
# Further investigations into the relationship between aggregation-dependent tau ligands and tau aggregation inhibitors were carried out using primulin. Primulin in solution has a fluorescence peak at 520 nm. This shifts to 470 nm when primulin is bound within a pure preparation of PHFs (FIG. 6). […] Therefore, binding by such compounds is dependent on the polymerised state of tau found in the PHF, but is not present in free tau.
# Compounds have been identified which disrupt the structure of the PHF and reverse the proteolytic stability of the PHF core (see WO 96/30766). Examples of such compounds are shown in accompanying FIG. 8. The present inventors have now identified that these compounds bind to tau at a specific binding site within the high affinity tau-tau binding domain.
# neurofibrillary tangles = assay: Fluorescence labelling of tangles (sections, ifI tangle suspensions); type: binding, human
# Procedure: as §1
# Serial 16 μm sections are cut from the hippocampus of a case dying with clinically and neuropathologically confirmed AD. […]
# A Leitz fluorescence microscope fitted with a photo-multiplyer tube (Model MPV-2) was used to quantitate fluorescence emission. […]
compound,measurement,setting,value
2-(4-amino phenyl)-6-methyl-1-sulphonate benzothiazole [compound 2],displaced from tangles by primulin (SB-ligand),tangle fragments,displaced from NFTs; also recorded: displace this from tangles
same,displaced from amyloid by primulin,amyloid,not amyloid
same,labelling / staining of amyloid,amyloid,bind preferentially to amyloid
"Cc1cc(=[N+](C)C)cc2sc3cc(N(C)C)cc(C)c3nc1-2.[Cl-] [DMMB, dimethyl methylene blue]",inhibitory potency in Preparation 2 compared with Preparation 1,tau-tau binding,higher inhibitory potency in Preparation 2 than in Preparation 1
same,tau-tau binding relative to that seen in the absence of DMMB,tau-tau binding; DMMB 5 μM,23%
same,tau-tau binding relative to that seen in the absence of DMMB,tau-tau binding; DMMB 15 μM,17%
O=C(O)CCCC[C@@H]1SC[C@@H]2NC(=O)N[C@@H]21 [biotin],immunogold anti-biotin labelling of isolated PHFs after pre-incubation,isolated PHFs,no labelling
CC1=CC(=O)OC1=O [citraconic anhydride],effect on PHF-bound primulin fluorescence peak,PHFs,disrupting the orderly structure of PHFs and releasing free tau and free unbound primulin; also recorded: abolish the 470 nm fluorescence peak
Cc1ccc2sc(-c3ccc(N=Nc4ccccc4O)cc3)nc2c1S(=O)(=O)[O-].[Na+] [compound 4a],activity as ligand,tangle fragments,active ligands
same,competition with / displacement of other ligands at tangles,tangle fragments,compete out thiazin red and primulin fluorescence at equivalent concentrations
Cc1ccc2sc(-c3ccc(N=Nc4cc(CCC(=O)ON5C(=O)CCC5=O)ccc4O)cc3)nc2c1S(=O)(=O)[O-].[Na+] [compound 4b],competition with / displacement of other ligands at tangles,tangle fragments,compete primulin and thiazin red
same,immunogold anti-biotin labelling of isolated PHFs after pre-incubation,isolated PHFs,binds to the proteolytically stable PHF structure; also recorded: label isolated PHFs
Cc1ccc2sc(-c3ccc(N=NNc4ccc(-c5nc6c(S(=O)(=O)[O-])c(C)ccc6s5)cc4)cc3)nc2c1S(=O)(=O)[O-].[Na+].[Na+] [thiazin yellow],activity as ligand,tangle fragments,inactive as a ligand; also recorded: does not serve as an effective ligand
same,competition with / displacement of other ligands at tangles,tangle fragments,did not
Cc1ccc2c(c1)sc(-c1ccc(N(C)C)cc1)[n+]2C.[Cl-] [thioflavin-T],displaced from tangles by primulin (SB-ligand),tangle fragments,displaced by yellow tangle fluorescence produced by primulin; also recorded: can be displaced from tangles by primulin
same,displaced from tangles by primulin (SB-ligand),tangle fragments; listed as 1b,displaced from NFTs
same,displaced from tangles by primulin (SB-ligand),tangle fragments; listed as compound 1b,displace compound 1b at tangles
same,labelling / staining of amyloid,amyloid,labelled amyloid preferentially; also recorded: strongly stain amyloid deposits
same,labelling / staining of amyloid,amyloid; listed as 1b,bind preferentially to amyloid
same,labelling of tangles,neurofibrillary tangles,barely visible tangle; also recorded: much less effective
alcian blue,effect on PHF-bound primulin fluorescence peak,PHFs,no disturbance of the characteristic bound primulin fluorescence peak; also recorded: retention of the fluorescence peak of primulin at 470 nm
